Source: patent US9062284B2, “Uses and detection of herbicide resistance genes for resistance to aryloxyalkanoate herbicides” (Dow ArgoSciences LLC, priority 2007, dated 2015)

Legend:
[1] = test system: AAD-13 (v1) gene T1 tobacco plants; experiment: Herbicide response of AAD-13 (v1) T1 tobacco; assay type: in vivo, Nicotiana tabacum; conditions: for % Injury 20-40% (individuals) / % Injury <20% (individuals) / % Injury >40% (individuals) / % Injury Ave: 2 WAT; for plant response to foliar applied auxinic herbicides (injury): 14 days after application, line pDAB4114[1]003.006
Description: Surviving T1 plants were then randomly assigned to various rates of 2,4-D. For tobacco, 140 g ae/ha 2,4-D is an effective dose to distinguish sensitive plants from ones with meaningful levels of resistance. Elevated rates were also applied to determine relative levels of resistance (140, 560, or 2240 g ae/ha).
All auxin herbicide applications were applied by track sprayer in a 187 L/ha spray volume. 2,4-D used was the commercial dimethylamine salt formulation (456 g ae/L, NuFarm, St Joseph, Mo.). Some T1 individuals were subjected to alternative commercial herbicides instead of a phenoxy auxin. One point of interest was determining whether the pyridyloxyacetate auxin herbicides, triclopyr and fluoroxypyr, could be effectively degraded in planta. Herbicides were applied to T1 plants with use of a track sprayer in a 187 L/ha spray volume.
T1 transformants were first selected from the background of untransformed plants using a 2,4-D selection scheme. Table 15 compares the response of AAD-13 (v1) and control genes to impart 2,4-D resistance to tobacco T1 transformants. Response is presented in terms of % visual injury 2 WAT. […] An arithmetic mean and standard deviation is presented for each treatment. The range in individual response is also indicated in the last column for each rate and transformation. KY160 untransformed tobacco served as an auxin-sensitive control. The AAD-13 (v1) gene imparted herbicide resistance to individual T1 tobacco plants.
The ability of AAD-13 (v1) to provide resistance to other aryloxyalkanoate auxin herbicides in transgenic tobacco was determined by foliar application of various substrates. Extra T1 generation plants following the T1 progeny testing were sprayed with the use of a track sprayer set at 187 L/ha. The plants were sprayed with a range of pyridyloxyacetate herbicides: 140-1120 g ae/ha triclopyr (Garlon 3A, Dow AgroSciences) and 280-1120 g ae/ha fluoroxypyr (Starane, Dow AgroSciences). All applications were formulated in water. Each treatment was replicated 3 times. Plants were evaluated at 3 and 14 days after treatment.

AAD-13 (v2) = molecular target: T1, AAD-13 (v2) (Sphingobium herbicidovorans, UniProt Q700X4); assay type: biochemical; conditions: substrate 1 mM; rate as percentage of 2,4-D rate in same sample set; propionate rates divided by two
T1 construct: His tag (C); made in house; host or cells: E. coli BL-21, pET-26b(+)
T1 sequence (Q700X4 other isoform, or with tags, fused parts or gaps): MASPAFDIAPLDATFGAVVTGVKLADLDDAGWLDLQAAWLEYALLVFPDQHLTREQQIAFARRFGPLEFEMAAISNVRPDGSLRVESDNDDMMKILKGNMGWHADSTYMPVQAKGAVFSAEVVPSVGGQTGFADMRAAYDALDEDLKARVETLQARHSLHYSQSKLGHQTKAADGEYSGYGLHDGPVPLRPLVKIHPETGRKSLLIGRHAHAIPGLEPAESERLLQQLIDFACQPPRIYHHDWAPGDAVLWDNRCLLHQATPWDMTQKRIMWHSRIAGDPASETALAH
Description: In order to test a broad range of substrates, the production of succinate from the breakdown of α-ketoglutarate was detected spectrophotometricly using a protocol based on the method of Luo et. al. (2006) (Anal. Biochem. 353: 69-74). As depicted in FIG. 3, the concomitant breakdown of α-ketoglutarate and the substrate of interest via AAD-13, results in the production of succinate. Succinate is further modified to succinyl-CoA by succinyl-CoA synthetase which consumes ATP and produces ADP. ADP is then consumed by the commonly employed pyruvate kinase/lactate dehydrogenase enzymatic coupling system (Sigma P0294). The resulting conversion of NADH to NAD is monitored spectrophotometrically at 340 nm.
Identification of AAD-13 (v2) substrates in vitro was based on enzymatic activity detected during continuous spectrophotometric monitoring of a 0.2 mL reaction volume in a 96 well microtiter plate. Reaction conditions were as follows: 100 mM MOPS pH 7.0, 0.4 mM NADH, 0.4 mM ATP, 0.4 mM CoA, 1 mM PEP, 10 mM MgCl2, 0.1 mM […] (solubilized in HCl), and 0.1 mM ascorbate, 1 mM α-ketoglutarate and sufficient AAD-13 (v2) to produce an observable rate in the presence of 2,4-D. Coupling enzymes (SCS/PK/LDH) were adjusted by batch to ensure adequate coupling, and potential substrates were generally assayed at 1 mM. Alterations in substrate concentrations were made as needed to adjust for solubility. Reactions were initiated by either the addition of AAD-13 (v2) or potential substrate. The rate of substrate independent conversion of α-ketoglutarate to succinate by AAD was monitored under the above assay conditions and subtracted from the observed reaction rates. […] Additionally, propionate compounds were checked for pyruvate contamination by spectrophotometrically monitoring the consumption of NADH in the presence of compound and PK/LDH.
Reaction rates are reported as a percentage of the 2,4-D reaction rate obtained in the same sample set. […] It should be noted that faster rates can be more difficult to accurately compare depending on the percentage of available substrate consumed. […] As a result, highly efficient substrates will be properly grouped when compared to low efficiency substrates. Within the grouping of highly efficient substrates however, compounds may not be quantitatively separated by a screen using single rates of substrate and AAD.

[2] = test system: Segregating T2 AAD-13 (v1) Arabidopsis plants (pDAB4114.01.094); experiment: Foliar pyridyloxyacetate response of segregating T2 AAD-13 (v1) Arabidopsis; assay type: in vivo, Arabidopsis thaliana
Protocol: The ability of AAD-13 (v1) to provide resistance to other aryloxyalkanoate auxin herbicides in transgenic Arabidopsis was determined by foliar application of various substrates. T2 generation Arabidopsis seed was stratified, and sown into selection trays much like that of Arabidopsis (Example 6.4). A transformed-control line containing PAT and the insect resistance gene Cry1F was planted in a similar manner. Seedlings were transferred to individual 3-inch pots in the greenhouse. All plants were sprayed with the use of a track sprayer set at 187 L/ha. The plants were sprayed with a range of pyridyloxyacetate herbicides: 200-800 g ae/ha triclopyr (Garlon 3A, Dow AgroSciences) and 200-800 g ae/ha fluoroxypyr (Starane, Dow AgroSciences). The 2,4-D metabolite resulting from AAD-13 activity, 2,4-dichlorophenol (DCP, Sigma) (at a molar equivalent to 280-2240 g ae/ha of 2,4-D, technical grade will also be tested. All applications were formulated in water. Each treatment was replicated 3-4 times. Plants were evaluated at 3 and 14 days after treatment.

Row | SMILES | % of 24D activity (AAD-13 (v2)) | Ave. % Injury 14DAT ([2]; 200 g ae/ha foliar-applied) | Ave. % Injury 14DAT ([2]; 400 g ae/ha foliar-applied) | Ave. % Injury 14DAT ([2]; 800 g ae/ha foliar-applied) | plant response to foliar applied auxinic herbicides (injury) ([1]; 280 g ae/ha) | plant response to foliar applied auxinic herbicides (injury) ([1]; 560 g ae/ha) | plant response to foliar applied auxinic herbicides (injury) ([1]; 1120 g ae/ha) | further results
1 | CNC.O=C(O)COc1ccc(Cl)cc1Cl [2,4-D DMA] | – | – | – | – | – | – | – | % Injury 20-40% (individuals) ([1]; 140 g ae/ha postemergence): 0; % Injury <20% (individuals) ([1]; 140 g ae/ha postemergence): 3; % Injury >40% (individuals) ([1]; 140 g ae/ha postemergence): 0; % Injury Ave ([1]; 140 g ae/ha postemergence): 0.0%; % Injury 20-40% (individuals) ([1]; 560 g ae/ha postemergence): 0; % Injury <20% (individuals) ([1]; 560 g ae/ha postemergence): 3; % Injury >40% (individuals) ([1]; 560 g ae/ha postemergence): 0; % Injury Ave ([1]; 560 g ae/ha postemergence): 0.0%; % Injury 20-40% (individuals) ([1]; 2240 g ae/ha postemergence): 0; % Injury <20% (individuals) ([1]; 2240 g ae/ha postemergence): 3; % Injury >40% (individuals) ([1]; 2240 g ae/ha postemergence): 0; % Injury Ave ([1]; 2240 g ae/ha postemergence): 2.0%
2 | C[C@@H](Oc1ccc(Cl)cc1Cl)C(=O)O [R-dichloroprop, R-dichlorprop] | 19% | – | – | – | – | – | – | –
3 | Nc1c(Cl)c(F)nc(OCC(=O)O)c1Cl [fluoroxypyr] | 67% | 10% | 16% | 55% | 7.0 | 25.0 | 37.0 | rate up to which robust resistance is provided ([2]; foliar application): up to 400 g ae/ha; rate up to which significant tolerance is provided ([1]; foliar application, T1 tobacco): up to 1120 g ae/ha
4 | O=C(O)COc1nc(Cl)c(Cl)cc1Cl [triclopyr] | 6% | 75% | 90% | 100% | 53.0 | 65.0 | 75.0 | –
